Measurements taken from a flash point compilation (Sun et al. 2020).

Columns and labels:
[1] = not given; remark: listed apart in the source

Row | flash point [°C] | flash point [1] [°C] | SMILES
1 | 59 | – | C[C@H]1CCCC[C@H]1O (relative stereo) [cis-2-methylcyclohexanol]
2 | 8 | – | C[C@H]1CCC[C@H](C)C1 (relative stereo) [trans-1,3-dimethylcyclohexane]
3 | 42 | – | C[C@@H]1CC(=O)[C@@H](C)C1 (relative stereo) [trans-2,4-dimethylcyclopentanone]
4 | 41 | – | C[C@@H]1CC(=O)C[C@H]1C (relative stereo) [trans-3,4-dimethylcyclopentanone]
5 | 7 | – | CCC(Cl)Cl [1,1-dichloropropane]
6 | -16 | – | CC1(C)CCCC1 [1,1-dimethylcyclopentane]
7 | 63 | – | Cc1cc(C)c(C)c(C)c1 [1,2,3,5-tetramethylbenzene]
8 | 72 | – | CCCc1cccc(C)c1C [1,2-dimethyl-3-propylbenzene]
9 | 99 | – | CC(O)CO (stereo not given) [1,2-propanediol]
10 | -16 | – | C1=CCCC=C1 [1,3-cyclohexadiene]
11 | -6 | – | C1COCO1 [1,3-dioxolane]
12 | 76 | – | CC(C)c1ccc(C(C)C)cc1 [1,4-diisopropylbenzene]
13 | -10 | – | C=CCCCC=C [1,6-heptadiene]
14 | 9 | – | C#CCCCC#C [1,6-heptadiyne]
15 | 5 | – | C=CCCCCC=C [1,7-octadiene]
16 | 23 | – | C#CCCCCC#C [1,7-octadiyne]
17 | 79 | – | CCc1ccccc1Br [1-bromo-2-ethylbenzene]
18 | – | 129.00 | CCCCCCC(C)(C)C(=O)OCC1CO1 (stereo not given) [oxiran-2-ylmethyl 2,2-dimethyloctanoate]
19 | – | 31.00 | O=CC1CO1 (stereo not given) [oxirane-2-carbaldehyde]
20 | – | 120.00 | CCCCCCCCCCCCCCCCCCCCCCCCC [pentacosane]
21 | – | 7.00 | CCCCCN [pentan-1-amine]
22 | – | 7.00 | CCCC(C)=O [pentan-2-one]
23 | – | 13.00 | CCC(=O)CC [pentan-3-one]

Row | flash point [°C] | flash point [1] [°C] | SMILES
24 | – | 33.00 | CCC(CC)OC(C)=O [pentan-3-yl acetate]
25 | – | 18.00 | CCCCCS [pentane-1-thiol]
26 | – | 34.00 | CC(=O)CC(C)=O [pentane-2,4-dione]
27 | – | 57.00 | CCCCCOC(=O)CCC [pentyl butanoate]
28 | – | 171.00 | c1ccc2c(c1)ccc1ccccc12 [phenanthrene]
29 | – | 79.00 | Oc1ccccc1 [phenol]
30 | – | 76.00 | NCc1ccccc1 [phenylmethanamine]
31 | – | 135.00 | c1ccc(COCc2ccccc2)cc1 [phenylmethoxymethylbenzene]
32 | – | 168.00 | O=C(O)c1ccccc1C(=O)O [phthalic acid]
33 | – | 11.00 | C[O-].[K+] [potassium;methanolate]
34 | – | 58.00 | C#CC(=O)O [prop-2-ynoic acid]
35 | – | 21.00 | C=C(C)C(=O)OC(C)C [propan-2-yl 2-methylprop-2-enoate]
36 | – | 2.00 | CC(=O)OC(C)C [propan-2-yl acetate]
37 | – | 36.00 | CC(C)C1CCCCC1 [propan-2-ylcyclohexane]
38 | – | -9.00 | CCC=O [propanal]
39 | – | 160.00 | OCC(O)CO [propane-1,2,3-triol]
40 | – | 33.00 | CC(N)CN (stereo not given) [propane-1,2-diamine]
41 | – | 24.00 | NCCCN [propane-1,3-diamine]
42 | – | 174.00 | OCCCO [propane-1,3-diol]
43 | – | 59.00 | SCCCS [propane-1,3-dithiol]
44 | – | -104.00 | CCC [propane]
45 | – | 182.00 | NC(=O)c1cccnc1 [pyridine-3-carboxamide]
46 | – | 193.00 | O=C(O)c1cccnc1 [pyridine-3-carboxylic acid]

Row | flash point [°C] | flash point [1] [°C] | SMILES
47 | – | 3.00 | C1CCNC1 [pyrrolidine]
48 | – | 192.00 | Cc1ccc(S(=O)(=O)[N-]Cl)cc1.[Na+] [sodium;chloro-(4-methylphenyl)sulfonylazanide]
49 | – | 260.00 | O=C(O)c1ccc(C(=O)O)cc1 [terephthalic acid]
50 | – | 110.00 | C=CCCCCCCCCCCCC [tetradec-1-ene]
51 | – | 37.00 | CCO[Si](OCC)(OCC)OCC [tetraethyl silicate]
52 | – | 166.00 | O=S1(=O)CCCC1 [thiolane 1,1-dioxide]
53 | – | -1.00 | c1ccsc1 [thiophene]
54 | – | 69.00 | ClC[Si](Cl)(Cl)Cl [trichloro(chloromethyl)silane]
55 | – | 21.00 | C=C[Si](Cl)(Cl)Cl [trichloro(ethenyl)silane]
56 | – | 22.00 | CC[Si](Cl)(Cl)Cl [trichloro(ethyl)silane]
57 | – | -9.00 | C[Si](Cl)(Cl)Cl [trichloro(methyl)silane]
58 | – | 91.00 | Cl[Si](Cl)(Cl)c1ccccc1 [trichloro(phenyl)silane]
59 | – | 37.00 | CCC[Si](Cl)(Cl)Cl [trichloro(propyl)silane]
60 | – | 132.00 | C=CC(=O)OCCCCCCCCCCCCC [tridecyl prop-2-enoate]
61 | – | 155.00 | CCOC(=O)CC(O)(CC(=O)OCC)C(=O)OCC [triethyl 2-hydroxypropane-1,2,3-tricarboxylate]
62 | – | 12.00 | FC(F)(F)c1ccccc1 [trifluoromethylbenzene]
63 | – | 86.00 | C[Si](C)(C)O[Si](C)(O[Si](C)(C)C)O[Si](C)(C)C [trimethyl-[methyl-bis(trimethylsilyloxy)silyl]oxysilane]
64 | – | 152.00 | CCCCC(CC)COP(=O)(OCC(CC)CCCC)OCC(CC)CCCC (stereo not given) [tris(2-ethylhexyl) phosphate]
65 | – | 71.00 | C=CCCCCCCCCC [undec-1-ene]
66 | – | 89.00 | CCCCCCCCCC(C)=O [undecan-2-one]
67 | – | 109.00 | CCCCCCCCCCCS [undecane-1-thiol]
68 | – | 141.00 | CCCCCCCCCCCc1ccccc1 [undecylbenzene]

Row | SMILES | flash point [°C] | flash point [1] [°C]
69 | C=C(Cl)Cl [1,1-dichloroethene] | -25 | –
70 | c1ccc2c(c1)CCCC2 [1,2,3,4-tetrahydronaphthalene] | 71 | –
71 | COc1ccccc1OC [1,2-dimethoxybenzene] | 87 | –
72 | CC(O)CCO (stereo not given) [1,3-butanediol] | 109 | –
73 | CC(Cl)CCCl (stereo not given) [1,3-dichlorobutane] | 31 | –
74 | OCCCCO [1,4-butanediol] | 121 | –
75 | N#CCCCCC#N [1,4-dicyanobutane] | 159 | –
76 | CCCCBr [1-bromobutane] | 10 | –
77 | C=C(C)C(=O)OCC1CO1 (stereo not given) [oxiran-2-ylmethyl 2-methylprop-2-enoate] | – | 83.00
78 | CCCCC#N [pentanenitrile] | – | 41.00
79 | CCCCC(=O)O [pentanoic acid] | – | 89.00
80 | CCCCCON=O [pentyl nitrite] | – | 10.00
81 | NNc1ccccc1 [phenylhydrazine] | – | 88.00
82 | SCc1ccccc1 [phenylmethanethiol] | – | 70.00
83 | C1CCNCC1 [piperidine] | – | 3.00
84 | C=CC(N)=O [prop-2-enamide] | – | 138.00
85 | C=CC#N [prop-2-enenitrile] | – | 0.00
86 | C=CCOC(C)=O [prop-2-enyl acetate] | – | 22.00
87 | C#CCO [prop-2-yn-1-ol] | – | 33.00
88 | CCCO [propan-1-ol] | – | 25.00
89 | CC(C)OC(=O)Cl [propan-2-yl carbonochloridate] | – | 16.00

Row | SMILES | flash point [°C] | flash point [1] [°C]
90 | N#CCC#N [propanedinitrile] | – | 130.00
91 | CCC#N [propanenitrile] | – | 2.00
92 | CCC(=O)Cl [propanoyl chloride] | – | 12.00
93 | Nc1cccnc1 [pyridin-3-amine] | – | 190.00
94 | Nc1ccncc1 [pyridin-4-amine] | – | 164.00
95 | c1ccncc1 [pyridine] | – | 20.00
96 | O=C1CCCN1 [pyrrolidin-2-one] | – | 129.00
97 | CC(C)(C)OOC(=O)c1ccccc1 [tert-butyl benzenecarboperoxoate] | – | 93.00
98 | C=CC(=O)OC(C)(C)C [tert-butyl prop-2-enoate] | – | 19.00
99 | C[CH2][Pb]([CH2]C)([CH2]C)[CH2]C [tetraethylplumbane] | – | 93.00
100 | [CH3][Pb]([CH3])([CH3])[CH3] [tetramethylplumbane] | – | 38.00
101 | CCOP(=O)(OCC)OCC [triethyl phosphate] | – | 116.00
102 | CCOP(OCC)OCC [triethyl phosphite] | – | 46.00
103 | c1ccc(OP(Oc2ccccc2)Oc2ccccc2)cc1 [triphenyl phosphite] | – | 218.00
104 | O.c1cc[c]([Sn]([c]2ccccc2)[c]2ccccc2)cc1 [triphenyltin;hydrate] | – | 400.00
105 | O=P(OC(CCl)CCl)(OC(CCl)CCl)OC(CCl)CCl [tris(1,3-dichloropropan-2-yl) phosphate] | – | 252.00
106 | CCCCOCCOP(=O)(OCCOCCCC)OCCOCCCC [tris(2-butoxyethyl) phosphate] | – | 224.00
107 | Cc1ccccc1OP(=O)(Oc1ccccc1C)Oc1ccccc1C [tris(2-methylphenyl) phosphate] | – | 225.00
108 | Cc1cccc(OP(=O)(Oc2cccc(C)c2)Oc2cccc(C)c2)c1 [tris(3-methylphenyl) phosphate] | – | 210.00
109 | CCCCSP(SCCCC)SCCCC [tris(butylsulfanyl)phosphane] | – | 146.00
110 | CN(C)C(=S)[S-].CN(C)C(=S)[S-].[Zn+2] [zinc;N,N-dimethylcarbamodithioate] | – | 93.00
